According to the supplement of paper PMC4862054:

Assays:
Assay in all cases: normalised response (% of control), CellTox Green; higher = less cell death (100 = DMSO, 0 = benzethonium chloride kill control)
Conditions in all cases: incubation time: 72 h
[1] = system: BT-474
In short: (§1)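 Every value is a normalised signal taken at one concentration of a dilution series. Compound was placed in 384-well plates at 5 concentrations in 10-fold steps over a compound-specific 10,000-fold range, and 20 µl of breast cancer cell suspension was seeded onto it. After 72 h, CellTox Green fluorescence (485/520 nm) was measured first and CellTiter-Glo luminescence second, following 10 min at room temperature. Each plate was scaled to 0.1 % DMSO (100) and a positive kill control (0).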

[2] = system: BT-549
In short: as §1

[3] = system: CAL-120
In short: as §1

[4] = system: CAL-51
In short: as §1

[5] = system: CAL-85-1
In short: as §1

[6] = system: DU-4475
In short: as §1

[7] = system: HCC1143
In short: as §1

[8] = system: HCC1937
In short: as §1

[9] = system: HDQ-P1
In short: as §1

[10] = system: Hs578T
In short: as §1

[11] = system: MCF-10A
In short: as §1

[12] = system: MDA-MB-231
In short: as §1

[13] = system: MDA-MB-436
In short: as §1

[14] = system: MDA-MB-453
In short: as §1

[15] = system: MDA-MB-468
In short: as §1

[16] = system: MFM-223
In short: as §1

| Compound | normalised response [1] | normalised response [2] | normalised response [3] | normalised response [4] | normalised response [5] | normalised response [6] | normalised response [7] | normalised response [8] | normalised response [9] | normalised response [10] | normalised response [11] | normalised response [12] | normalised response [13] | normalised response [14] | normalised response [15] | normalised response [16] |
| --- | --- | --- | --- | --- | --- | --- | --- | --- | --- | --- | --- | --- | --- | --- | --- | --- |
| CC(C)C[C@H](NC(=O)[C@H](CCc1ccccc1)NC(=O)CN1CCOCC1)C(=O)N[C@@H](Cc1ccccc1)C(=O)N[C@@H](CC(C)C)C(=O)[C@@]1(C)CO1 [Carfilzomib] (1000 nM) | 45.7% | 62.5% | -0.18% | 15.1% | -74.2% | 87.3% | 72.1% | 32.8% | -14.6% | -63.5% | -56% | -0.32% | 38.2% | 91.3% | -84% | 55.2% |
| Nc1nc(Cl)nc2c1ncn2[C@@H]1O[C@H](CO)[C@@H](O)[C@@H]1F [Clofarabine] (1000 nM) | 100% | 70.7% | 103% | 12.1% | 88.3% | 103% | 112% | 109% | 101% | 95.3% | 110% | 111% | 105% | 113% | 145% | 99% |
| Nc1nc(Cl)nc2c1ncn2[C@@H]1O[C@H](CO)[C@@H](O)[C@@H]1F [Clofarabine] (10000 nM) | 105% | 87.3% | 105% | 40.6% | 60.5% | 89.1% | 106% | 75.6% | 112% | 142% | 110% | 90.7% | 65.6% | 95.2% | 73.1% | 102% |
| C[C@@H]1C[C@H]2[C@@H]3CCC4=CC(=O)C=C[C@]4(C)[C@@]3(F)[C@@H](O)C[C@]2(C)[C@@]1(O)C(=O)CO [Dexamethasone] (1000 nM) | 99.3% | 111% | 98.4% | 110% | 98.8% | 96% | 107% | 106% | 56.1% | 77.8% | 78.1% | 141% | 81.5% | 94.8% | 129% | 54.1% |
| C[C@@H]1C[C@H]2[C@@H]3CCC4=CC(=O)C=C[C@]4(C)[C@@]3(F)[C@@H](O)C[C@]2(C)[C@@]1(O)C(=O)CO [Dexamethasone] (10000 nM) | 94% | 100% | 102% | 103% | 130% | 97.4% | 51.4% | 61.1% | 99.2% | 87.4% | 81.8% | 139% | 97.4% | 100% | 135% | 101% |
| CC(C)C(=O)Nc1ccc([N+](=O)[O-])c(C(F)(F)F)c1 [Flutamide] (1000 nM) | 99.5% | 115% | 102% | 98.4% | 101% | 99.8% | 99.2% | 118% | 114% | 108% | 97.9% | 98.5% | 99.7% | 102% | 144% | 99% |
| CC(C)C(=O)Nc1ccc([N+](=O)[O-])c(C(F)(F)F)c1 [Flutamide] (10000 nM) | 92.6% | 111% | 98.1% | 100% | 103% | 98.6% | 96.4% | 101% | 92.3% | 124% | 106% | 112% | 75.1% | 102% | 124% | 89% |
| COc1cc2c(Oc3ccc(NC(=O)C4(C(=O)Nc5ccc(F)cc5)CC4)cc3F)ccnc2cc1OCCCN1CCOCC1 [Foretinib] (100 nM) | 100% | 113% | 101% | 94.2% | 100% | 101% | 106% | 111% | 109% | 83.7% | 111% | 65.1% | 102% | 107% | 97.5% | 101% |
| COc1cc2c(Oc3ccc(NC(=O)C4(C(=O)Nc5ccc(F)cc5)CC4)cc3F)ccnc2cc1OCCCN1CCOCC1 [Foretinib] (1000 nM) | 97.1% | 88.3% | 99.9% | 37.9% | 76.8% | 95.2% | 46% | 99.8% | 58.9% | 75.7% | 101% | -15.4% | 81.9% | 93.5% | 37.6% | 84.4% |
| O=NN(CCCl)C(=O)NC1CCCCC1 [Lomustine] (1000 nM) | 98.1% | 104% | 103% | 112% | 98.6% | 99.4% | 108% | 120% | 55.3% | 98.3% | 96.9% | 90% | 84.8% | 103% | 128% | 97% |
| O=C(O)CC[C@H]1CC[C@@](c2cc(F)ccc2F)(S(=O)(=O)c2ccc(Cl)cc2)CC1 [MK-0752] (100 nM) | 102% | 131% | 101% | 116% | 97% | 107% | 105% | 96% | 109% | 97.3% | 114% | 122% | 110% | 111% | 165% | 94% |
| NC1(c2ccc(-c3nc4ccn5c(=O)[nH]nc5c4cc3-c3ccccc3)cc2)CCC1 [MK-2206] (100 nM) | 103% | 133% | 101% | 117% | 102% | 104% | 97.8% | 63.5% | 108% | 116% | 105% | 110% | 107% | 105% | 116% | 92% |
| CO[C@H](C(=O)[C@@H](O)[C@@H](C)O)[C@@H]1Cc2cc3cc(O[C@H]4C[C@@H](O[C@@H]5C[C@@H](O)[C@H](O)[C@@H](C)O5)[C@H](O)[C@@H](C)O4)c(C)c(O)c3c(O)c2C(=O)[C@H]1O[C@H]1C[C@@H](O[C@@H]2C[C@@H](O)[C@@H](O[C@@H]3C[C@](C)(O)[C@H](O)[C@@H](C)O3)[C@@H](C)O2)[C@H](O)[C@@H](C)O1 [Plicamycin] (10000 nM) | 96% | 79.8% | 71.9% | -45.3% | 39.3% | 87.9% | 82.2% | 114% | 82.1% | 40.9% | 9.61% | 55.1% | 109% | 45.7% | 54% | 88.4% |
| C[C@]12C=CC(=O)C=C1CC[C@@H]1[C@@H]2C(=O)C[C@@]2(C)[C@H]1CC[C@]2(O)C(=O)CO [Prednisone] (1000 nM) | 103% | 120% | 102% | 112% | 103% | 101% | 105% | 113% | 94.4% | 105% | 98.8% | 116% | 101% | 100% | 83.2% | 84.2% |
| CO[C@H]1C[C@@H]2CC[C@@H](C)[C@@](O)(O2)C(=O)C(=O)N2CCCC[C@H]2C(=O)O[C@H]([C@H](C)C[C@@H]2CC[C@@H](O)[C@H](OC)C2)CC(=O)[C@H](C)/C=C(\C)[C@@H](O)[C@@H](OC)C(=O)[C@H](C)C[C@H](C)/C=C/C=C/C=C/1C [Sirolimus] (100 nM) | 103% | 93.7% | 106% | 99.1% | 110% | 98.5% | 101% | 49.5% | 108% | 106% | 107% | 116% | 94.5% | 106% | 141% | 103% |
| CN1CCN(c2nc(C3=C(c4c[nH]c5ccccc45)C(=O)NC3=O)c3ccccc3n2)CC1 [Sotrastaurin] (1000 nM) | 98.8% | 111% | 102% | 105% | 106% | 99.8% | 58.9% | 108% | 66.9% | 105% | 108% | 108% | 102% | 105% | 215% | 102% |
| CN1CCN(c2nc(C3=C(c4c[nH]c5ccccc45)C(=O)NC3=O)c3ccccc3n2)CC1 [Sotrastaurin] (10000 nM) | 98.4% | 99.7% | 94.2% | 94.2% | 128% | 100% | 93.5% | 68.4% | 102% | 118% | 104% | 115% | 68.3% | 107% | 194% | 101% |
| Cn1nnc2c(C(N)=O)ncn2c1=O [Temozolomide] (1000 nM) | 96.5% | 108% | 103% | 87.6% | 108% | 100% | 50.4% | 96.6% | 100% | 94.3% | 89.5% | 109% | 80.5% | 105% | 106% | 52% |
| Cn1nnc2c(C(N)=O)ncn2c1=O [Temozolomide] (10000 nM) | 101% | 75.3% | 98.5% | 104% | 105% | 98.2% | 93.6% | 105% | 109% | 111% | 93.2% | 108% | 94.4% | 101% | 103% | 97.3% |
| CC[C@@H]1C(=O)N(C)c2cnc(Nc3ccc(C(=O)N[C@H]4CC[C@H](N5CCN(CC6CC6)CC5)CC4)cc3OC)nc2N1C(C)C [Volasertib] (1000 nM) | 94.7% | 71% | 63.5% | 22.4% | 88.7% | 90.4% | -18.9% | 59.1% | 31.2% | -77.7% | 56.1% | 95% | 92.7% | 91.3% | 118% | 70.6% |
